We go through one molecule from publication PMC6287599, “2,6-Bis(2-Benzimidazolyl)Pyridine (BBP) Is a Potent and Selective Inhibitor of Small Conductance Calcium-Activated Potassium (SK) Channels” (Frontiers in Pharmacology, 2018).

For this assay, the target named is T1, Kv4.3/KCHIP2 (Homo sapiens, UniProt Q9UK17).
T1 sequence (Q9UK17 1-655): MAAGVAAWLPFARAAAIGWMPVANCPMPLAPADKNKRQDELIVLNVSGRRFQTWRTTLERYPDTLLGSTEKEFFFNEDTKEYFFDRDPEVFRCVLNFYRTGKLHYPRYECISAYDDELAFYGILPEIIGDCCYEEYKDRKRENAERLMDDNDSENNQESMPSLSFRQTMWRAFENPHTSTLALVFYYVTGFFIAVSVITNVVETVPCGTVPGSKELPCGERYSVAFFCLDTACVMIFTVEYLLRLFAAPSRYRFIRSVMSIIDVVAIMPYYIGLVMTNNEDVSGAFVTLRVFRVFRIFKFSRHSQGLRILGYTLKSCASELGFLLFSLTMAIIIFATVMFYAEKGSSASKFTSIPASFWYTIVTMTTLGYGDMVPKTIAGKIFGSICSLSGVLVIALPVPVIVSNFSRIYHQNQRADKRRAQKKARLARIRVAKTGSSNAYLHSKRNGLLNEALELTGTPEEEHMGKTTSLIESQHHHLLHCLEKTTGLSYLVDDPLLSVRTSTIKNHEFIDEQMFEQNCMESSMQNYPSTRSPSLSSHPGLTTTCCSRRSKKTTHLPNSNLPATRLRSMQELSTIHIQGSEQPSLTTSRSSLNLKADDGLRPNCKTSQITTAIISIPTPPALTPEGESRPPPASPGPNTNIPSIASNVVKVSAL
T1 sequence (Q9NS61 1-270 partner): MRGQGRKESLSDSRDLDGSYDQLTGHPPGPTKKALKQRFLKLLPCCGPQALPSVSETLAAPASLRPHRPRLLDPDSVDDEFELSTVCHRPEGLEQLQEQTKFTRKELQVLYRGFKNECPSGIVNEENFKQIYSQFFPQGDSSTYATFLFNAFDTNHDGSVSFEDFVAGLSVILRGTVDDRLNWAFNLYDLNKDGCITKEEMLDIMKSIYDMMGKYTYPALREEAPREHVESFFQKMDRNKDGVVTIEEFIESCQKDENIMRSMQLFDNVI
Briefly: Two-electrode voltage clamp in Xenopus laevis oocytes, Kv4.3/KCHIP2. Format: cell-based. The following applies: BBP 10 μM, TEVC, n = 5. How it is done:
cRNA was prepared from linearized plasmids using the mMESSAGE mMACHINE T7 kit (Ambion, USA) and quantified by UV spectroscopy (NanoDrop, Thermo Scientific, Wilmington, USA). Xenopus laevis oocytes were acquired from EcoCyte Bioscience (Castrop-Rauxel, Germany). Oocytes were injected with 50 nL cRNA and currents were recorded after 2 days of incubation at 19°C. Currents were recorded at a sampling rate of 10 kHz using a TEVC amplifier (Dagan CA-1B; IL, USA), and borosilicate glass recording electrodes (Module Ohm, Herlev, Denmark), made with a DMZ Universal Puller (Zeitz Instruments, Martinsried, Germany) with a resistance of 0.5–1 MΩ when filled with 2 M KCl. Oocytes were superfused with Kulori (pH 7.4) solution containing NaCl 90 mM, KCl 4 mM, MgCl2 1 mM, CaCl2 1 mM, 4-(2-hydroxyethyl)-1-piperazineethanesulfonic acid 5 mM, and currents were elicited with the voltage protocols previously indicated (Skarsfeldt et al., [2016]), from a holding potential of −80 mV. […]
To assess the effect of BBP on other calcium-activated potassium channels (hBK, hSK3 WT, rSK3 H491N, and hIK), each individual current was first normalized to its cell size using membrane's capacitance (pA/pF) before statistical analysis. […] Statistical significance between saline and the effect of both BBP and the corresponding reference compound was determined for each channel using one-way ANOVA analysis. […]

Entries after “also recorded” stand apart in the source; their conditions may differ.

With `c1cc(-c2nc3ccccc3[nH]2)nc(-c2nc3ccccc3[nH]2)c1` [BBP, 2,6-Bis(2-benzimidazolyl)pyridine], the “Effect on Kv4.3/KCHIP2 current” value is “did not have any effect; also recorded: did not significantly affect”.
